Values quoted from earlier work, collected in patent publication US20190259474A1, “GAN-CNN FOR MHC PEPTIDE BINDING PREDICTION” (REGENERON PHARMACEUTICALS, INC., priority 2018, published 2019).
Values belong to the sequence of their own block, whether it stands above or below them.

Columns and labels:
[1] = tested on: MHC-I protein complex encoded by HLA allele C*16:01; conditions: HLA C*16:01; category transformed from IC50; further: key: binding (1); not binding (−1)
[2] = tested on: MHC-I protein complex encoded by HLA allele C*03:04; conditions: HLA C*03:04; category transformed from IC50; further: key: binding (1); not binding (−1)
[3] = tested on: MHC-I protein complex encoded by HLA allele B*48:01; conditions: HLA B*48:01; category transformed from IC50; further: key: binding (1); not binding (−1)
[4] = target: MHC-I protein complex encoded by HLA allele A*03:01 (Homo sapiens, UniProt P04439); conditions: HLA A*03:01; category transformed from IC50; further: key: binding (1); not binding (−1)
[5] = tested on: MHC-I protein complex encoded by HLA allele B*58:01; conditions: HLA B*58:01; category transformed from IC50; further: key: binding (1); not binding (−1)
[6] = tested on: MHC-I protein complex encoded by HLA allele B*14:02; conditions: HLA B*14:02; category transformed from IC50; further: key: binding (1); not binding (−1)
[7] = target: MHC-I protein complex encoded by HLA allele A*02:01 (Homo sapiens, UniProt P04439, D140Y/D185E/D98H/E176V/E277Q/G131W/G231S/I119V/I121R/I166T/I218V/L300P/L318F/N151K/N90K/P208A/P217A/Q86G/Q94H/R138H/R169H/T345S); conditions: HLA A*02:01; category transformed from IC50; further: key: binding (1); not binding (−1)
[8] = tested on: MHC-I protein complex encoded by HLA allele A*68:02; conditions: HLA A*68:02; category transformed from IC50
[9] = target: MHC-I protein complex encoded by HLA allele A*02:03 (Homo sapiens, UniProt P04439, A173T/D140Y/D185E/D98H/E277Q/G131W/G231S/I119V/I121R/I166T/I218V/L180W/L300P/L318F/N151K/N90K/P208A/P217A/Q86G/Q94H/R138H/R169H/T345S); conditions: HLA A*02:03; category transformed from IC50; further: key: binding (1); not binding (−1)
[10] = tested on: MHC-I protein complex encoded by HLA allele A*02:02; conditions: HLA A*02:02; category transformed from IC50
[11] = target: MHC-I protein complex encoded by HLA allele A*02:06 (Homo sapiens, UniProt P04439, D140Y/D185E/D98H/E176V/E277Q/F33Y/G131W/G231S/I119V/I121R/I166T/I218V/L300P/L318F/N151K/N90K/P208A/P217A/Q86G/Q94H/R138H/R169H/T345S); conditions: HLA A*02:06; category transformed from IC50
[12] = tested on: MHC-I protein complex encoded by HLA allele B*44:03; conditions: HLA B*44:03; category transformed from IC50; further: key: binding (1); not binding (−1)
[13] = tested on: MHC-I protein complex encoded by HLA allele A829:02; conditions: HLA A829:02; category transformed from IC50; further: key: binding (1); not binding (−1)

Sequence: AAADAAAAL (MHC-I binding peptide)
Binding Category [2]: 1

Sequence: AAAAALQAK (MHC-I binding peptide)
Binding Category [4]: 1

Sequence: AAAAPYAGW (MHC-I binding peptide)
Binding Category [5]: 1

Sequence: AAAARAAAL (MHC-I binding peptide)
Binding Category [6]: 1

Sequence: AAAATCALV (MHC-I binding peptide)
Binding Category [8]: 1 | Binding Category [9]: 1 | Binding Category [7]: 1 | Binding Category [10]: 1 | Binding Category [11]: 1

Sequence: AAADFAHAE (MHC-I binding peptide)
Binding Category [12]: −1

The remaining lines, values ahead:

Binding Category [1]: 1
Sequence: AAAAALWL (MHC-I binding peptide)

Binding Category [3]: 1
Sequence: AAAAFEAAL

Binding Category [6]: −1
Sequence: AAAAARAAL (MHC-I binding peptide)

Binding Category [7]: −1
Sequence: AAAAEEEEE (MHC-I binding peptide)

Binding Category [1]: 1
Sequence: AAADPKVAF (MHC-I binding peptide)

Binding Category [13]: 1
Sequence: AAAAAAAALY (MHC-I binding peptide)
